Laboratory results from patent US8598227B2, “Epoprostenol formulation and method of making thereof” (Actelion Pharmaceuticals Ltd., priority 2006, dated 2013).

Tests used:
[1] = Solution stability of Epoprostenol in presence of 50 mg/ml of arginine; type: physicochemical; settings: 50 mg/ml arginine
Procedure: A solution of epoprostenol and 50 mg/ml of arginine was prepared and the stability of this solution at 5° C. was determined. The resulting data are presented in the Table 4: Stability of the same formulation was also conducted at pH 11.2; and the data are summarized in the Table 5 below: […]

[2] = Solution stability of reconstituted lyophile (epoprostenol 0.5 mg/ml, arginine 50 mg/ml, pH 13.0); type: physicochemical; settings: 50 mg/ml arginine
Procedure: In the next set of experiments, the pH of the solution containing epoprostenol and arginine was adjusted to 13.0 with sodium hydroxide, and lyophilized. Upon reconstitution of the lyophile with 1 ml of Water for Injection, the reconstituted solution contains 50 mg/ml arginine and 0.5 mg/ml epoprostenol. The pH of the solution is 13.0. The stability data are presented in Table 6 for 5° C. and Table 7 for 29° C. below: […]

[3] = Dilution stability of reconstituted lyophile diluted to 10 μg/ml in IV fluids; type: physicochemical
Procedure: Dilution studies were also conducted to determine whether the formulations of the present invention are suitable for IV infusion at room temperature. The stability studies were conducted at 25° C. and 30° C. to mimic the temperatures during the infusion over a 24 hour period in various large volume parenteral solutions.
To this end, the stability of the epoprostenol lyophile reconstituted and diluted to 10 μg/ml in normal saline was stability monitored for 48 hours at 25° C. and 30° C. Dilution stability of all three primary formulation batches was conducted in normal saline at 25° C. and 30° C. In addition to these studies, dilution stability studies on one lot of primary formulation batch were conducted at 25° C. and 30° C. in 5% Dextrose (D5W), WFI (in-house) and lactated Ringer's solution.
For the dilution studies, each vial was reconstituted with 5 ml of the diluent. The clear solution was transferred into a 50 ml volumetric flask. The vial was rinsed with 5 ml of diluent three times and the rinses were transferred to the flask. The contents of the flask were further diluted with the diluent and made up to the mark with the diluent. The pH of the diluted solution was measured and recorded. The contents of the flask were held at the temperatures noted and analyzed at predetermined time intervals.

[4] = cited from earlier work

CCCCC[C@H](O)/C=C/C1[C@H]2C/C(=C/CCCC(=O)[O-])OC2C[C@H]1O.[Na+] (stereo partly drawn) [Epoprostenol, (5Z,9(alpha),11(alpha),13E,15S)-6,9-epoxy-11,15-dihydroxyprosta-5,13-dien-1-oic acid]
% Assay of Epoprostenol by Area ([1]; pH 11.2, 5 ± 1° C., 4.0 HRS): 99.5% | Area % of 6-keto et al. impurities ([1]; pH 11.2, 5 ± 1° C., 4.0 HRS): 0.28% | % Assay of Epoprostenol by Area ([1]; pH 11.2, 5 ± 1° C., 7.0 HRS): 99.0% | Area % of 6-keto et al. impurities ([1]; pH 11.2, 5 ± 1° C., 7.0 HRS): 0.39% | % Assay of Epoprostenol by Area ([1]; pH 11.2, 5 ± 1° C., 10.0 HRS): 98.6% | Area % of 6-keto et al. impurities ([1]; pH 11.2, 5 ± 1° C., 10.0 HRS): 0.53% | % Assay of Epoprostenol by Area ([1]; pH 11.2, 5 ± 1° C., 11.5 HRS): 98.3% | Area % of 6-keto et al. impurities ([1]; pH 11.2, 5 ± 1° C., 11.5 HRS): 0.57% | % Assay of Epoprostenol by Area ([1]; pH 11.2, 5 ± 1° C., 17.5 HRS): 97.3% | Area % of 6-keto et al. impurities ([1]; pH 11.2, 5 ± 1° C., 17.5 HRS): 0.80% | % Assay of Epoprostenol by Area ([1]; pH 11.2, 5 ± 1° C., Initial): 100.0% | loss in potency ([1]; pH 11.9, 5° C., at 53 hours): 1.4% | % Assay of Epoprostenol by Area ([1]; pH 11.9, 5 ± 1° C., 2 HRS): 99.9% | Area % of 6-keto et al. impurities ([1]; pH 11.9, 5 ± 1° C., 2 HRS): 0.19% | % Assay of Epoprostenol by Area ([1]; pH 11.9, 5 ± 1° C., 4 HRS): 99.8% | Area % of 6-keto et al. impurities ([1]; pH 11.9, 5 ± 1° C., 4 HRS): 0.19% | % Assay of Epoprostenol by Area ([1]; pH 11.9, 5 ± 1° C., 6 HRS): 99.8% | Area % of 6-keto et al. impurities ([1]; pH 11.9, 5 ± 1° C., 6 HRS): 0.21% | % Assay of Epoprostenol by Area ([1]; pH 11.9, 5 ± 1° C., 8 HRS): 99.7% | Area % of 6-keto et al. impurities ([1]; pH 11.9, 5 ± 1° C., 8 HRS): 0.22% | % Assay of Epoprostenol by Area ([1]; pH 11.9, 5 ± 1° C., 10 HRS): 99.6% | Area % of 6-keto et al. impurities ([1]; pH 11.9, 5 ± 1° C., 10 HRS): 0.23% | % Assay of Epoprostenol by Area ([1]; pH 11.9, 5 ± 1° C., 12.5 HRS): 99.6% | Area % of 6-keto et al. impurities ([1]; pH 11.9, 5 ± 1° C., 12.5 HRS): 0.25% | % Assay of Epoprostenol by Area ([1]; pH 11.9, 5 ± 1° C., 14.5 HRS): 99.6% | Area % of 6-keto et al. impurities ([1]; pH 11.9, 5 ± 1° C., 14.5 HRS): 0.26% | % Assay of Epoprostenol by Area ([1]; pH 11.9, 5 ± 1° C., 39 HRS): 99.5% | Area % of 6-keto et al. impurities ([1]; pH 11.9, 5 ± 1° C., 39 HRS): 0.63% | % Assay of Epoprostenol by Area ([1]; pH 11.9, 5 ± 1° C., 53 HRS): 98.6% | Area % of 6-keto et al. impurities ([1]; pH 11.9, 5 ± 1° C., 53 HRS): 1.15% | % Assay of Epoprostenol by Area ([1]; pH 11.9, 5 ± 1° C., 77 HRS): 92.7% | Area % of 6-keto et al. impurities ([1]; pH 11.9, 5 ± 1° C., 77 HRS): 2.05% | % Assay of Epoprostenol by Area ([1]; pH 11.9, 5 ± 1° C., 100 HRS): 92.5% | Area % of 6-keto et al. impurities ([1]; pH 11.9, 5 ± 1° C., 100 HRS): 2.10% | % Assay of Epoprostenol by Area ([1]; pH 11.9, 5 ± 1° C., 124 HRS): 92.5% | Area % of 6-keto et al. impurities ([1]; pH 11.9, 5 ± 1° C., 124 HRS): 2.25% | % Assay of Epoprostenol by Area ([1]; pH 11.9, 5 ± 1° C., Initial): 100.0% | Area % of 6-keto et al. impurities ([1]; pH 11.9, 5 ± 1° C., Initial): 0.15% | loss of potency ([2]; pH 13.0, 5° C., over 480 hours): 3.4% | loss of potency on average ([2]; pH 13.0, 5° C., over 480 hours): 0.007 %/hour | % Assay of Epoprostenol by Area ([2]; pH 13.0, 5 ± 1° C., 14.5 Hours): 99.8% | Area % of 6-keto PGF et al. impurities ([2]; pH 13.0, 5 ± 1° C., 14.5 Hours): 0.20% | % Assay of Epoprostenol by Area ([2]; pH 13.0, 5 ± 1° C., 53 Hours): 98.8% | % Assay of Epoprostenol by Area ([2]; pH 13.0, 5 ± 1° C., 124 Hours): 98.0% | Area % of 6-keto PGF et al. impurities ([2]; pH 13.0, 5 ± 1° C., 124 Hours): 0.40% | % Assay of Epoprostenol by Area ([2]; pH 13.0, 5 ± 1° C., 148 Hours): 97.6% | Area % of 6-keto PGF et al. impurities ([2]; pH 13.0, 5 ± 1° C., 148 Hours): 0.45% | % Assay of Epoprostenol by Area ([2]; pH 13.0, 5 ± 1° C., 192 Hours): 97.3% | Area % of 6-keto PGF et al. impurities ([2]; pH 13.0, 5 ± 1° C., 192 Hours): 0.47% | % Assay of Epoprostenol by Area ([2]; pH 13.0, 5 ± 1° C., 240 Hours): 96.9% | Area % of 6-keto PGF et al. impurities ([2]; pH 13.0, 5 ± 1° C., 240 Hours): 0.61% | % Assay of Epoprostenol by Area ([2]; pH 13.0, 5 ± 1° C., 480 Hours): 96.6% | Area % of 6-keto PGF et al. impurities ([2]; pH 13.0, 5 ± 1° C., 480 Hours): 0.70% | % Assay of Epoprostenol by Area ([2]; pH 13.0, 5 ± 1° C., Initial): 100.0% | Area % of 6-keto PGF et al. impurities ([2]; pH 13.0, 5 ± 1° C., Initial): 0.16% | degradation ([2]; pH 13.0, 29° C., in 12 hours): 1.5% | % Assay of Epoprostenol by Area ([2]; pH 13.0, 29 ± 1° C., 1 HRS): 100.0% | Area % of 6-keto et al. impurities ([2]; pH 13.0, 29 ± 1° C., 1 HRS): 0.087% | % Assay of Epoprostenol by Area ([2]; pH 13.0, 29 ± 1° C., 5 HRS): 99.8% | Area % of 6-keto et al. impurities ([2]; pH 13.0, 29 ± 1° C., 5 HRS): 0.18% | % Assay of Epoprostenol by Area ([2]; pH 13.0, 29 ± 1° C., 7 HRS): 99.3% | Area % of 6-keto et al. impurities ([2]; pH 13.0, 29 ± 1° C., 7 HRS): 0.21% | % Assay of Epoprostenol by Area ([2]; pH 13.0, 29 ± 1° C., 8 HRS): 99.2% | Area % of 6-keto et al. impurities ([2]; pH 13.0, 29 ± 1° C., 8 HRS): 0.25% | % Assay of Epoprostenol by Area ([2]; pH 13.0, 29 ± 1° C., 9 HRS): 99.1% | Area % of 6-keto et al. impurities ([2]; pH 13.0, 29 ± 1° C., 9 HRS): 0.29% | % Assay of Epoprostenol by Area ([2]; pH 13.0, 29 ± 1° C., 10 HRS): 98.8% | Area % of 6-keto et al. impurities ([2]; pH 13.0, 29 ± 1° C., 10 HRS): 0.28% | % Assay of Epoprostenol by Area ([2]; pH 13.0, 29 ± 1° C., 11 HRS): 98.6% | Area % of 6-keto et al. impurities ([2]; pH 13.0, 29 ± 1° C., 11 HRS): 0.29% | % Assay of Epoprostenol by Area ([2]; pH 13.0, 29 ± 1° C., 12 HRS): 98.5% | Area % of 6-keto et al. impurities ([2]; pH 13.0, 29 ± 1° C., 12 HRS): 0.30% | % Assay of Epoprostenol by Area ([2]; pH 13.0, 29 ± 1° C., 13 HRS): 98.1% | Area % of 6-keto et al. impurities ([2]; pH 13.0, 29 ± 1° C., 13 HRS): 0.38% | % Assay of Epoprostenol by Area ([2]; pH 13.0, 29 ± 1° C., 14 HRS): 98.0% | Area % of 6-keto et al. impurities ([2]; pH 13.0, 29 ± 1° C., 14 HRS): 0.37% | % Assay of Epoprostenol by Area ([2]; pH 13.0, 29 ± 1° C., 15 HRS): 97.8% | Area % of 6-keto et al. impurities ([2]; pH 13.0, 29 ± 1° C., 15 HRS): 0.39% | % Assay of Epoprostenol by Area ([2]; pH 13.0, 29 ± 1° C., 24 HRS): 97.5% | Area % of 6-keto et al. impurities ([2]; pH 13.0, 29 ± 1° C., 24 HRS): 0.39% | % Assay of Epoprostenol by Area ([2]; pH 13.0, 29 ± 1° C., 36 HRS): 97.5% | Area % of 6-keto et al. impurities ([2]; pH 13.0, 29 ± 1° C., 36 HRS): 0.45% | % Assay of Epoprostenol by Area ([2]; pH 13.0, 29 ± 1° C., Initial): 100.0% | Area % of 6-keto et al. impurities ([2]; pH 13.0, 29 ± 1° C., Initial): 0.072% | drug degraded ([3]; D5W, after 8 hours): approximately 84% | stability compared with normal saline ([3]; lactated Ringer's solution, 25° C. and 30° C.): comparable to that of normal saline | potency maintained ([3]; water, 30° C., for more than 18 hours): greater than 90%

N=C(N)NCCC[C@H](N)C(=O)O [arginine]
basic pKa [4]: 10.8
